Data taken from patent US20250320523A1, “PHAGOCYTOSIS ASSAY COMBINING A SYNTHETIC CELL DEATH SWITCH AND A PHAGOCYTOSIS REPORTER SYSTEM” (Hoffmann-La Roche Inc., priority 2022, published 2025).

Columns and labels:
[1] = system: H4-iCaspase-SEP-mCherry cells in blood-brain barrier spheroids; assay: Phagocytosis assay in 3D BBB spheroids (H4-iCaspase-SEP-mCherry and HMC3 microglia); assay type: cell-based, human; settings: 100 nM AP20187, day 2, imaged 8 hours
Experimental: H4 cells were transduced with a lentiviral vector containing iCaspase-SEP-mCherry, single-cell sorted for SEP- and mCherry double-positive cells and expanded in 1 μg/ml Puromycin-containing media to select for stably transduced cells. H4-iCaspase-SEP-mCherry and HMC3 microglia were co-seeded with primary human brain endothelial cells, pericytes and astrocytes (Sciencell) to form blood-brain barrier (BBB) spheroids as described by Simonneau, C et al. Investigating receptor-mediated antibody transcytosis using blood-brain barrier organoid arrays. Fluids Barriers CNS. 2021; 18 (1): 43. Briefly, the cells were combined at a 1:1:1:1:1 ratio and seeded into a glass-bottom GRI3D microwell plate (SUN Biosciences). After 2 days of culture in EGM2 medium (Lonza) with astrocyte growth supplement (Sciencell), a timelapse experiment was performed as described above (for FIG. 4): Apoptosis was induced at t0 by adding 100 nM AP20187 to the media, and time-lapse imaging was immediately started on an inverted fluorescence microscope (Leica) using autofocus, 10× objective, 1 image every 10 minutes for 8 hours or more.

[2] = system: HEK293 cells transfected with iCaspase9; assay: Apoptosis induction in iCaspase9-transfected HEK293 cells, AnnexinV/viability dye flow cytometry; assay type: cell-based
Experimental: HEK293 cells were transfected with 2 μg of iCaspase9 construct by nucleofection (Amaxa 4D nucleofector by Lonza, program CM-130) and plated in a 24-well plate. The following day, 100 nM AP20187 was added to the cells, and analyzed 1 h, 2 h or 3 h later. For the control, the cells were incubated with […] Staurosporine for 3 h. For the analysis, the cells were harvested and labeled with AnnexinV-BV421 and viability dye APCeF780 and analyzed by flow cytometry. Apoptotic cells were qualified as AnnexinV-positive and viability dye-negative.

[3] = system: H4-iCaspase-SEP-mCherry cells in neurovascular unit model; assay: Phagocytosis assay in 3D neurovascular unit model in microfluidic chip; assay type: cell-based, human; settings: 10 nM AP20187, 3D matrix of microfluidic chip, after 7 days culture
Experimental: H4 cells were transduced with a lentiviral vector containing iCaspase-SEP-mCherry, single-cell sorted for SEP- and mCherry double positive cells and expanded in 1 μg/ml Puromycin-containing media to select for stably transduced cells. H4-iCaspase-SEP-mCherry and HMC3 microglia were co-seeded with primary human brain endothelial cells, pericytes and astrocytes (Sciencell) at the ratio 1:1:4:0.5:1 and left to self-assemble to neurovascular units inside a fibrin gel matrix in a microfluidic chip (AIM Biotech). The cells were seeded into the microfluidic chips as described in Campisi, M et al.3D Self-Organized Human Blood-Brain Barrier in a Microfluidic Chip. Methods Mol Biol. 2021; 2258:205-219, and the vascular networks were grown over 7 days in EGM2 medium (Lonza) with astrocyte growth supplement (Sciencell). Apoptosis was induced at t0 by adding 10 nM AP20187 to the media, the chips were then fixed in 4% PFA after 30 minutes or 2 h, counterstained with DAPI and imaged on an inverted fluorescence microscope.

[4] = system: phagocytosis by iPSC-derived microglia; assay: 2D phagocytosis of apoptotic H4-iCaspase-SEP-mCherry cells by iPSC-derived microglia (Incucyte imaging); assay type: cell-based, human; settings: 1 uM Cytochalasin D added 30 min before imaging; apoptosis induced with 10 nM AP20187
Experimental: H4 cells were transduced with a lentiviral vector containing iCaspase-SEP-mCherry, single-cell sorted for SEP and mCherry double-positive cells and expanded in 1 μg/ml Puromycin-containing media to select for stably transduced cells. HMC3 or iPSC-derived microglia (Reich, M et al. Alzheimer's Risk Gene TREM2 Determines Functional Properties of New Type of Human iPSC-Derived Microglia. 2021; 11:617860) were seeded in a 96-well imaging plate […]. To visualize microglial morphology during the phagocytosis assay, cells were stained with a far-red viability dye (eBioscience). H4-iCaspase-SEP-mCherry cells were added the next day and left to attach for 3 h. […] Apoptosis was induced at to by adding 10 nM AP20187 to the media, and time-lapse imaging was immediately started on an inverted fluorescence microscope (Leica) or incucyte (Sartorius), 10× objective, 1 image every 10 minutes for 8 hours or more.
The number of phagocytosed cells per area was determined using the incucyte software for automated image quantification, by 1) segmenting individual cells, 2) identifying all H4-iCaspase-SEP-mCherry cells positive for mCherry (red fluorescence) and 3) from those cells, identifying the SEP (green fluorescence) negative cells as phagocytosed cells. […]

[5] = system: efferocytosis by THP-1 macrophages; assay: Efferocytosis of Jurkat-iCaspase-SEP-mCherry cells by THP-1 macrophages, flow cytometry; assay type: cell-based; settings: Jurkat cells pre-treated, then 10 nM AP20187, incubated with THP-1 macrophages
Experimental: Jurkat cells were transduced with a lentiviral vector containing iCaspase-SEP-mCherry, FACS sorted for SEP- and mCherry-expression and expanded in 1 ug/ml Puromycin-containing media to select for stably transduced cells. For pre-treatments, the Jurkat cells were incubated with GAS6, an efferocytosis enhancer, or Cytochalasin D, an efferocytosis inhibitor, then exposed to 10 nM AP20187 and incubated with THP-1 macrophages. As a control, Jurkat cells were treated with Staurosporin and labeled with pHrodo (red pH-sensitive fluorophore). Efferocytosis was quantified using flow cytometry, by gating for mCherry-positive and SEP-negative cells (apoptotic cells taken up by THP1), and for pHrodo-high cells in the control samples.

CC[C@H](C(=O)N1CCCC[C@H]1C(=O)O[C@H](CCc1ccc(OC)c(OC)c1)c1cccc(OCC(=O)NCC(CNC(=O)COc2cccc([C@@H](CCc3ccc(OC)c(OC)c3)OC(=O)[C@@H]3CCCCN3C(=O)[C@@H](CC)c3cc(OC)c(OC)c(OC)c3)c2)CN(C)C)c1)c1cc(OC)c(OC)c(OC)c1 [AP20187]
SEP signal of spheroids (loss indicates phagocytosis) [1]: gradually lost SEP signal | apoptotic cells (AnnexinV-positive and viability dye-negative) ([2]; 100 nM AP20187, after 1 h, iCaspase9 HEK293 cells): 88% | time to efficient induction of apoptosis in transduced cells [3]: ≤ 30 min

C=C1[C@@H](C)[C@H]2[C@H](Cc3ccccc3)NC(=O)[C@]23[C@H](OC(C)=O)/C=C/[C@@](C)(O)C(=O)[C@@H](C)C/C=C/[C@H]3[C@@H]1O [Cytochalasin D]
onset and total amount of phagocytosed apoptotic cells [4]: reduces both the onset and total amount | uptake of apoptotic cells by macrophages [5]: lowest uptake

CN[C@@H]1C[C@H]2O[C@@](C)([C@@H]1OC)n1c3ccccc3c3c4c(c5c6ccccc6n2c5c31)C(=O)NC4 [Staurosporine]
apoptotic cells (AnnexinV-positive and viability dye-negative) ([2]; Staurosporine, after 3 h): 36%

B1: GAS6: an efferocytosis enhancer (protein, UniProt Q14393 31-678, looked up)
Growth arrest-specific …: ALLPAREATQFLRPRQRRAFQVFEEAKQGHLERECVEELCSREEAREVFENDPETDYFYPRYLDCINKYGSPYTKNSGFATCVQNLPDQCTPNPCDRKGTQACQDLMGNFFCLCKAGWGGRLCDKDVNECSQENGGCLQICHNKPGSFHCSCHSGFELSSDGRTCQDIDECADSEACGEARCKNLPGSYSCLCDEGFAYSSQEKACRDVDECLQGRCEQVCVNSPGSYTCHCDGRGGLKLSQDMDTCEDILPCVPFSVAKSVKSLYLGRMFSGTPVIRLRFKRLQPTRLVAEFDFRTFDPEGILLFAGGHQDSTWIVLALRAGRLELQLRYNGVGRVTSSGPVINHGMWQTISVEELARNLVIKVNRDAVMKIAVAGDLFQPERGLYHLNLTVGGIPFHEKDLVQPINPRLDGCMRSWNWLNGEDTTIQETVKVNTRMQCFSVTERGSFYPGSGFAFYSLDYMRTPLDVGTESTWEVEVVAHIRPAADTGVLFALWAPDLRAVPLSVALVDYHSTKKLKKQLVVLAVEHTALALMEIKVCDGQEHVVTVSLRDGEATLEVDGTRGQSEVSAAQLQERLAVLERHLRSPVLTFAGGLPDVPVTSAPVTAFYRGCMTLEVNRRLLDLDEAAYKHSDITAHSCPPVEPAAA
uptake of apoptotic cells by macrophages [5]: highest uptake
